These results are taken from patent publication US10000471B2, “Pyrazole P38 map kinase inhibitors” (Respivert Limited, priority 2010, dated 2018).

In data set [1] the target is T1, p38 MAPKα isoform (MAPK14) (Homo sapiens, UniProt Q16539).
T1 construct: purchased Invitrogen
The data set is described as follows: Enzyme inhibition assay (FRET, Z-LYTE), p38 MAPKα via MAPKAP-K2 activation. The class given is biochemical. The following applies: read-out: Enzyme Inhibition IC50 p38α. Summed up: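 Recombinant p38 MAPKα was preincubated with compound for 2 h at RT. Its activity was measured indirectly through activation/phosphorylation of downstream MAPKAP-K2, with a Z-LYTE FRET peptide read-out (coumarin/fluorescein ratio) after a 1 h development step. IC50 came from concentration-response curves of percent inhibition versus an uninhibited control.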

The next data set has as its target T2, p38 MAPKγ (MAPK12) (Homo sapiens, UniProt P53778).
T2 construct: purchased Invitrogen
T2 sequence (P53778 1-367): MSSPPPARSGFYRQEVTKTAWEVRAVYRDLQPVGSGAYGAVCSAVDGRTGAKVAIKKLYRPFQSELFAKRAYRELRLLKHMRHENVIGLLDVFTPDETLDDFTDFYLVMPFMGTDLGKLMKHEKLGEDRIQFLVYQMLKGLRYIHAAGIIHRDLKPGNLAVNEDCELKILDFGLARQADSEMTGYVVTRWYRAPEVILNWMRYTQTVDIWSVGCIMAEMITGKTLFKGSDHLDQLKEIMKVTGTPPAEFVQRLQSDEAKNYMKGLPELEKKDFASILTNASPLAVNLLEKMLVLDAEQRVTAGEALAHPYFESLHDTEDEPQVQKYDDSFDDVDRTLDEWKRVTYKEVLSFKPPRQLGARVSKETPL
The experiment in a line: Enzyme inhibition assay (FRET, Z-LYTE), p38 MAPKγ. The class given is biochemical. The following applies: read-out: Enzyme Inhibition IC50 p38γ. Summed up: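 Recombinant phosphorylated p38 MAPKγ preincubated 2 h at RT with compound in HEPES buffer, then 2 μM FRET peptide and 100 μM ATP added for 1 h; protease development 1 h. Coumarin/fluorescein emission ratio gave phosphorylation; IC50 from concentration-response versus uninhibited control.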

The test system of data set [2] is TNFα release in THP-1 cells. The data set is described as follows: LPS-induced TNFα release in THP-1 cells. The following applies: Homo sapiens. In kind it is cell-based, human. Summed up:
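Human monocytic THP-1 cells stimulated with 3 μg/mL E. coli LPS for 4 hr; supernatant TNFα measured by sandwich ELISA. Inhibition at each concentration versus vehicle control, IC50 from concentration-response curve.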

Data set [3] relates to TNFα release in d-U937 cells. The data set is described as follows: LPS-induced TNFα release in d-U937 cells. Conditions: Homo sapiens, dU937, relative to 10 μg/mL BIRB796, read-out: LPS/TNFα REC50 d-U937. In kind it is cell-based, human. The method, boiled down:
(§1)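 PMA-differentiated (100 ng/ml, 48–72 hr) U937 macrophage-type cells pre-incubated 2 hr with compound, then stimulated 4 hr with 0.1 μg/mL E. coli O111:B4 LPS; supernatant TNFα and IL-8 measured by sandwich ELISA. TNFα inhibition expressed relative to 10 μg/mL BIRB796, giving REC50; IL-8 inhibition versus vehicle, giving IC50.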

In data set [4] the test system is IL-8 release in d-U937 cells. The data set is described as follows: LPS-induced IL-8 release in d-U937 cells. The class given is cell-based, human. Conditions: Homo sapiens, dU937. The method, boiled down:
as §1

For data set [5], the system named is ICAM-1 induction in BEAS2B cells. The data set is described as follows: Poly I:C-induced ICAM-1 induction in BEAS2B cells. In kind it is cell-based, human. Conditions: Homo sapiens, BEAS-2B, read-out: PolyIC/ICAM1 IC50 BEAS2B. Summed up: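 Human bronchial epithelial BEAS2B cells were pre-incubated with compound for 2 hr, then transfected with 1 μg/mL poly I:C. After 18 hr, surface ICAM-1 was measured by cell-based ELISA (OD450-655) and normalized to crystal violet cell counts (OD595). IC50 came from inhibition versus vehicle across the concentration-response curve.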

Data set [6] deals with Differentiated U937 cells. The data set is described as follows: Cell viability MTT assay. In kind it is cell-based, human. The following applies: negative = apparent increase in viability; for MTT Assay (Viability) 4 h d-U937, percentage loss of cell viability: 4 hr in 5% FCS; for MTT Assay (Viability) 24 h d-U937, percentage loss of cell viability: 24 h in 10% FCS. Summed up: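 Differentiated U937 cells pre-incubated with compound either 4 hr in 5% FCS or 24 h in 10% FCS, then 1 hr MTT. Formazan dissolved in DMSO, absorbance at 550 nm. Percentage viability loss relative to 0.5% DMSO vehicle; apparent increases appear as negative percentages.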
For orientation: Formazan colour is commonly taken as a measure of viable cells.

T1 sequence (Q16539 whole entry, canonical isoform): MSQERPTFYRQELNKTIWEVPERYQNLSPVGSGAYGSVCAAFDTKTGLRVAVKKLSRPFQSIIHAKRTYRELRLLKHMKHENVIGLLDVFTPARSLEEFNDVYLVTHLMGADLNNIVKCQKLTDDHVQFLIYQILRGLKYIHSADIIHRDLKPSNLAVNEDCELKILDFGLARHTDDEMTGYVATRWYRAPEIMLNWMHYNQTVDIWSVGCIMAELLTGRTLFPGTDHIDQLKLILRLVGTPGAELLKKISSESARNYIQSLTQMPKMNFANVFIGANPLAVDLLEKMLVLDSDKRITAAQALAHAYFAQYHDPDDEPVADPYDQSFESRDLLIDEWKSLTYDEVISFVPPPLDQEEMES

Take `CNC(=O)Nc1cc(Oc2ccc(NC(=O)Nc3cc(C(C)(C)C)nn3-c3ccc(C(=O)OC)cc3)c(Cl)c2Cl)ccn1` [Example 59, methyl 4-(3-tert-butyl-5-(3-(2,3-dichloro-4-(2-(3-methylureido)pyridin-4-yloxy)phenyl)ureido)-1H-pyrazol-1-yl)benzoate]: the IC50 in data set [1] is 125 nM; on p38 MAPKγ (MAPK12), 198 nM; in data set [2], 2 nM; in data set [4], 1.9 nM; in data set [5] it was 0.9 nM. In addition, in data set [3], the EC50 came to 1.6 nM. The “MTT Assay (Viability) 4 h d-U937, percentage loss of cell viability” value in data set [6] is −24.8%. Moreover, in data set [6], the “MTT Assay (Viability) 24 h d-U937, percentage loss of cell viability” value is on record as 0.0%.

Take `CNC(=O)Nc1cc(Oc2ccc(NC(=O)Nc3cc(C(C)(C)C)nn3-c3ccc(C(=O)O)cc3)c(Cl)c2Cl)ccn1` [Example 60, 4-(3-tert-butyl-5-(3-(2,3-dichloro-4-(2-(3-methylureido)pyridin-4-yloxy)phenyl)ureido)-1H-pyrazol-1-yl)benzoic acid]: the IC50 is 10.3 nM in data set [1]; 12.9 nM at p38 MAPKγ (MAPK12); 22.7 nM in data set [2]; 23.5 nM in data set [4]; more than 163 nM in data set [5]. Further, the EC50 in data set [3] is 9.2 nM. The “MTT Assay (Viability) 4 h d-U937, percentage loss of cell viability” value in data set [6] is reported as −15.4%. Besides, the “MTT Assay (Viability) 24 h d-U937, percentage loss of cell viability” value in data set [6] was −52.4%.

Take `CNC(=O)Nc1cc(Oc2ccc(NC(=O)Nc3cc(C(C)(C)C)nn3-c3ccc(CO)cc3)c3ncccc23)ccn1` [Example 61, 1-(4-(8-(3-(3-tert-butyl-1-(4-hydroxymethylphenyl)-1H-pyrazol-5-yl)ureido)quinolin-5-yloxy)pyridin-2-yl)-3-methylurea]: the IC50 in data set [1] was 32.7 nM; at p38 MAPKγ (MAPK12), 94 nM; in data set [2] it was 2.5 nM; in data set [4] it was 235 nM; in data set [5], 11.4 nM. Also, the EC50 in data set [3] worked out at 182 nM. In data set [6], the “MTT Assay (Viability) 4 h d-U937, percentage loss of cell viability” value is −31.9%. Besides, in data set [6], the “MTT Assay (Viability) 24 h d-U937, percentage loss of cell viability” value was −12.9%.

As for `CNC(=O)Nc1cc(Oc2ccc(NC(=O)Nc3cc(C(C)(C)C)nn3-c3ccc(CO)cc3)c3cccnc23)ccn1` [Example 62], the IC50 amounted to 37.2 nM in data set [1]; 135 nM on p38 MAPKγ (MAPK12); 7.1 nM in data set [2]; 25.8 nM in data set [4]; 70.8 nM in data set [5]. The EC50 in data set [3] was determined as 17.6 nM. The “MTT Assay (Viability) 4 h d-U937, percentage loss of cell viability” value in data set [6] was −13.4%. In data set [6], the “MTT Assay (Viability) 24 h d-U937, percentage loss of cell viability” value is −22.9%.

For the molecule `Cc1ccc(-n2nc(C(C)(C)C)cc2NC(=O)Nc2ccc(Oc3ccnc(NC(=O)N(C)C)c3)c(Cl)c2Cl)cc1` [Example 63], the IC50 in data set [1] is 28.9 nM; at p38 MAPKγ (MAPK12) it was 140 nM; in data set [2], 0.5 nM; in data set [4], 11.4 nM; in data set [5], 3 nM. Besides, the EC50 in data set [3] came out at 0.3 nM. Besides, the “MTT Assay (Viability) 4 h d-U937, percentage loss of cell viability” value in data set [6] is −29.7%. Moreover, the “MTT Assay (Viability) 24 h d-U937, percentage loss of cell viability” value in data set [6] is 51.6%.

Regarding `COc1ccc(-n2nc(C(C)(C)C)cc2NC(=O)Nc2ccc(Oc3ccnc(NC(=O)N(C)C)c3)c(Cl)c2Cl)cc1` [Example 64, 3-(4-(4-(3-(3-tert-butyl-1-(4-methoxyphenyl)-1H-pyrazol-5-yl)ureido)-2,3-dichlorophenoxy)pyridin-2-yl)-1,1-dimethylurea], the IC50 is 13.3 nM in data set [1]; 58 nM on p38 MAPKγ (MAPK12); 0.4 nM in data set [2]; 15.1 nM in data set [4]; 1.5 nM in data set [5]. Besides, the EC50 in data set [3] is 0.3 nM. The “MTT Assay (Viability) 4 h d-U937, percentage loss of cell viability” value in data set [6] is recorded as −37.2%. The “MTT Assay (Viability) 24 h d-U937, percentage loss of cell viability” value in data set [6] is recorded as 37.2%.

For the molecule `COc1ccc(-n2nc(C(C)(C)C)cc2NC(=O)Nc2ccc(Oc3ccnc(NC(=O)NC4CC4)c3)c(Cl)c2Cl)cc1` [Example 65, 1-(4-(4-(3-(3-tert-butyl-1-(4-methoxyphenyl)-1H-pyrazol-5-yl)ureido)-2,3-dichlorophenoxy)pyridin-2-yl)-3-cyclopropylurea], the IC50 came out at 37.7 nM in data set [1]; 122 nM on p38 MAPKγ (MAPK12); 2.7 nM in data set [2]; 3.8 nM in data set [4]; 17.5 nM in data set [5]. The EC50 in data set [3] was 2 nM. Also, the “MTT Assay (Viability) 4 h d-U937, percentage loss of cell viability” value in data set [6] is on record as −4.7%. In addition, the “MTT Assay (Viability) 24 h d-U937, percentage loss of cell viability” value in data set [6] came to 20.2%.

Take `COc1ccc(-n2nc(C(C)(C)C)cc2NC(=O)Nc2ccc(Oc3ccnc(NC(=O)NCCO)c3)c(Cl)c2Cl)cc1` [Example 66, 1-(4-(4-(3-(3-tert-butyl-1-(4-methoxyphenyl)-1H-pyrazol-5-yl)ureido)-2,3-dichlorophenoxy)pyridin-2-yl)-3-(2-hydroxyethyl)urea]: the IC50 in data set [1] stood at 21.6 nM; at p38 MAPKγ (MAPK12) it was 45 nM; in data set [2] it was 1.1 nM; in data set [4] it was 4.9 nM; in data set [5] it was 5.5 nM. The EC50 in data set [3] is 0.3 nM. Also, the “MTT Assay (Viability) 4 h d-U937, percentage loss of cell viability” value in data set [6] came out at 15.0%. The “MTT Assay (Viability) 24 h d-U937, percentage loss of cell viability” value in data set [6] is on record as 90.3%.

Take `COCCNC(=O)Nc1cc(Oc2ccc(NC(=O)Nc3cc(C(C)(C)C)nn3-c3ccc(OC)cc3)c(Cl)c2Cl)ccn1` [Example 67, 1-(4-(4-(3-(3-tert-butyl-1-(4-methoxyphenyl)-1H-pyrazol-5-yl)ureido)-2,3-dichlorophenoxy)pyridin-2-yl)-3-(2-methoxyethyl)urea]: the IC50 in data set [1] worked out at 27.9 nM; on p38 MAPKγ (MAPK12), 67.8 nM; in data set [2] it was 1.2 nM; in data set [4], 5.8 nM; in data set [5], 2 nM. Besides, the EC50 in data set [3] turned out to be 1.7 nM. Besides, the “MTT Assay (Viability) 4 h d-U937, percentage loss of cell viability” value in data set [6] is reported as −11.4%. For the same molecule, in data set [6], the “MTT Assay (Viability) 24 h d-U937, percentage loss of cell viability” value worked out at 40.9%.

With `COc1ccc(-n2nc(C(C)(C)C)cc2NC(=O)Nc2ccc(Oc3ccnc(NC(=O)NCCN4CCOCC4)c3)c(Cl)c2Cl)cc1` [Example 68, 1-(4-(4-(3-(3-tert-butyl-1-(4-methoxyphenyl)-1H-pyrazol-5-yl)ureido)-2,3-dichlorophenoxy)pyridin-2-yl)-3-(2-morpholinoethyl)urea], the IC50 worked out at 18.2 nM in data set [1]; 137 nM at p38 MAPKγ (MAPK12); 1.4 nM in data set [2]; 10.3 nM in data set [4]; 3.3 nM in data set [5]. In addition, the EC50 in data set [3] came out at 0.2 nM. Besides, the “MTT Assay (Viability) 4 h d-U937, percentage loss of cell viability” value in data set [6] is on record as 11.3%. Besides, in data set [6], the “MTT Assay (Viability) 24 h d-U937, percentage loss of cell viability” value was found to be 73.3%.

As to `COc1ccc(-n2nc(C(C)(C)C)cc2NC(=O)Nc2ccc(Oc3ccnc(NC(=O)NCCCn4ccnc4)c3)c(Cl)c2Cl)cc1` [Example 69, 1-(3-(1H-imidazol-1-yl)propyl)-3-(4-(4-(3-(3-tert-butyl-1-(4-methoxyphenyl)-1H-pyrazol-5-yl)ureido)-2,3-dichlorophenoxy)pyridin-2-yl)urea], the IC50 in data set [1] turned out to be 15.2 nM; at p38 MAPKγ (MAPK12), 68.3 nM; in data set [2], 1.4 nM; in data set [4] it was 4.2 nM; in data set [5], 22.2 nM. Also, the EC50 in data set [3] came to 0.6 nM. The “MTT Assay (Viability) 4 h d-U937, percentage loss of cell viability” value in data set [6] was 8.8%. The “MTT Assay (Viability) 24 h d-U937, percentage loss of cell viability” value in data set [6] came to 75.5%.
